Laboratory results from PubChem BioAssay (NCI).
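Briefly, cells in 96-well plates were exposed to five compound concentrations for 48 h, and endpoints were estimated by linear interpolation. The concentration for 50% growth inhibition is given as GI50. The concentration for full growth arrest is given as TGI.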

Tests used:
Experiment in all cases: NCI-60 cell line screen, 48 h
HT29 colon = system: HT29 colon
EKVX NSCLC = system: EKVX NSCLC
SK-MEL-2 melanoma = system: SK-MEL-2 melanoma
A549 NSCLC = system: A549 NSCLC
MALME-3M melanoma = system: MALME-3M melanoma
KM12 colon = system: KM12 colon
TK-10 renal = system: TK-10 renal
SR leukemia = system: SR leukemia
T-47D breast = system: T-47D breast
MDA-MB-435 = system: MDA-MB-435

| SMILES | TGI (HT29 colon) [µM] | TGI (EKVX NSCLC) [µM] | TGI (SK-MEL-2 melanoma) [µM] | TGI (A549 NSCLC) [µM] | TGI (MALME-3M melanoma) [µM] | TGI (KM12 colon) [µM] | TGI (TK-10 renal) [µM] | TGI (SR leukemia) [µM] | GI50 (HT29 colon) [µM] | GI50 (SK-MEL-2 melanoma) [µM] | GI50 (A549 NSCLC) [µM] | GI50 (MALME-3M melanoma) [µM] | GI50 (T-47D breast) [µM] | TGI (T-47D breast) [µM] | GI50 (SR leukemia) [µM] | GI50 (KM12 colon) [µM] | GI50 (TK-10 renal) [µM] | GI50 (MDA-MB-435) [µM] | TGI (MDA-MB-435) [µM] | GI50 (EKVX NSCLC) [µM] |
| --- | --- | --- | --- | --- | --- | --- | --- | --- | --- | --- | --- | --- | --- | --- | --- | --- | --- | --- | --- | --- |
| Cc1cc2c(c(C(N)=O)c1C)-c1ccccc1C2=O | > 100 | > 100 | > 100 | > 100 | > 100 | > 100 | > 100 |  |  |  |  |  |  |  |  |  |  |  |  |  |
| CC(C(=O)c1ccc(Cl)cc1)/C(=N/NC(=O)NN)C(=O)Nc1cccc(C(F)(F)F)c1 (stereo not drawn) | > 100 | > 100 | > 100 | > 100 | > 100 |  | > 100 |  |  |  |  |  |  |  |  |  |  |  |  |  |
| Cc1ccccc1C1=[N+]([O-])c2ccc(Cl)cc2C1=O | 20.3 | 25 | 46 | 34.2 | 30.6 | 27.1 | 34.5 | 64.2 |  |  |  |  |  |  |  |  |  |  |  |  |
| COC(=O)/C([Se]c1c(C)cc(C)cc1C)=C(/[Se]c1c(C)cc(C)cc1C)C(=O)OC | > 100 | > 100 | > 100 | > 100 | > 100 | > 100 | > 100 | > 100 |  |  |  |  |  |  |  |  |  |  |  |  |
| CCC1CN2CCc3cc(OC)c(OC)cc3C2CC1CC1c2cc(OC)c(OC)cc2CCN1C(=O)C1CCCN1 (stereo not drawn) | > 100 | > 100 | 68.7 | 78.1 | 37.3 | > 100 | > 100 | 85.1 |  |  |  |  |  |  |  |  |  |  |  |  |
| COc1cc(/C=C2\[C@H]3c4c(c(OC)c(C)c(OC)c4OC)CC(C(=O)N2Cc2ccccc2)N3C)c(OC)c(C)c1OC | 41.1 | 67.6 |  | > 100 | 47.3 | > 100 | 79.2 | 74.4 |  |  |  |  |  |  |  |  |  |  |  |  |
| CCCCCCCCCCNC(=O)CI | 3.76 |  | 4.02 | 21.9 | 0.494 | 4.29 | 3.33 | 0.64 | 1.98 | 1.94 | 5.44 | 0.213 | 0.829 | 2.41 | 0.204 | 2.13 | 1.76 | 1.97 | 4.51 |  |
| CCOC(=O)NC(=O)c1cn(C2CCCCC2)c(=O)[nH]c1=O | > 100 | > 100 | > 100 | > 100 | > 100 | > 100 | > 100 |  |  |  |  |  |  |  |  |  |  |  |  |  |
| COc1ccc(-c2nc(-c3cc(OC)cc(OC)c3)[nH]c2-c2ccc(OC)cc2)cc1 | > 100 |  |  | > 100 | > 100 | > 100 | > 100 | 8.74 | 4.97 |  | 5.31 | 8.31 | 2.36 | 9.25 | 2.43 | 6.2 | 53.1 | 5.98 | > 100 |  |
| CC(C)CCC[C@@H](C)C1CCC2[C@@H]3CC=C4C[C@@H](C(=O)NCCN(C)C)CC[C@]4(C)C3CC[C@@]21C (stereo partly drawn) | > 100 | > 100 | 23.6 | > 100 | > 100 | 28.2 | 69.8 |  |  |  |  |  |  |  |  |  |  |  |  |  |
| COc1c(C)n(CCO)ccc1=O | > 100 | > 100 | > 100 | > 100 | > 100 | > 100 | > 100 | > 100 |  |  |  |  |  |  |  |  |  |  |  |  |
| Nc1ccccc1C(=O)/C=C/c1c(O)ccc2ccccc12 | > 100 | > 100 | > 100 | > 100 | > 100 | > 100 | > 100 | > 100 |  |  |  |  |  |  |  |  |  |  |  |  |
| Cc1[nH]c2ccccc2c1C1Cc2ccccc2N1C(=O)C#Cc1ccc([N+](=O)[O-])cc1 (stereo not drawn) | > 100 | > 100 |  | > 100 | > 100 | > 100 | > 100 | > 100 |  |  |  |  |  |  |  |  |  |  |  |  |
| Cn1c(=O)nc2n(-c3cc(C(F)(F)F)cc(C(F)(F)F)c3)c3ccccc3nc-2c1=O | > 100 | > 100 | > 100 | > 100 | > 100 | > 100 | > 100 | > 100 |  |  |  |  |  |  |  |  |  |  |  |  |
| CC(=O)N1CCN(c2ccc(OCC3COC(Cn4ccnc4)(c4ccc(Cl)cc4Cl)O3)cc2)CC1 (stereo not drawn) | 43.9 |  | 39.1 | > 100 | > 100 | > 100 | 99.9 | 66.5 |  |  |  |  |  |  |  |  |  |  |  |  |
| N#CCCN1C/C(=C/c2ccc(Br)cc2)C(=O)/C(=C/c2ccc(Br)cc2)C1 | 1.24 |  | 6.54 | 26.3 | 5.29 |  | 5.44 |  | 0.338 | 2.6 | 2.38 | 2.23 | 4.36 | 28.2 |  |  | 2.45 | 2.24 | 6.83 |  |
| COC(=O)C1C(O)C(C(=O)OC)C(C)N(C)C1C (stereo not drawn) | > 100 | > 100 | > 100 | > 100 |  | > 100 | > 100 | > 100 |  |  |  |  |  |  |  |  |  |  | > 100 |  |
| Cn1cc(-c2csc(-c3cn(CCCCN4CCCCC4)c4ccccc34)n2)c2cccnc21 | 3.1 | 3.03 |  | 3.37 |  |  | 3.05 |  | 1.58 |  | 1.79 |  | 14.3 | 40.3 |  |  | 1.61 | 1.13 | 2.36 | 1.58 |
| COC(=O)C(=O)C(C(C)=O)C(=O)NCc1ccc(OC)c(OC)c1 (stereo not drawn) | > 100 | > 100 | > 100 | > 100 | > 100 | > 100 | > 100 | > 100 |  |  |  |  |  |  |  |  |  |  |  |  |
| CCOP(=O)(OCC)C(C(=O)OC)C(=O)C(=O)Nc1ccc(Cl)cc1Cl (stereo not drawn) | > 100 | > 100 | > 100 | > 100 | > 100 | > 100 | > 100 |  |  |  |  |  |  |  |  |  |  |  |  |  |
| Cc1ccc(C)c(N2C/C(=N\NC(=O)CC#N)C(c3nc4ccccc4s3)C(=O)C2=O)c1 (stereo not drawn) | > 100 | > 100 | > 100 | > 100 | > 100 | > 100 | > 100 | > 100 |  |  |  |  |  |  |  |  |  |  |  |  |
| O=[N+]([O-])c1cccc(C2=NOC(C3CCCCC3)C2)c1 (stereo not drawn) | > 100 |  | > 100 | > 100 | > 100 | > 100 | > 100 |  |  |  |  |  |  |  |  |  |  |  |  |  |
